From patent publication US20260042731A1, “(2,4-DICHLOROPHENOXY)ACETIC ACID ANALOGS” (CORTEVA AGRISCIENCE LLC, priority 2022, published 2026)
Like-named read-outs stand apart in the source and are kept apart here.

Columns and labels:
[1] = system: Amaranthus rudis (AMATA), tall water hemp; assay: Postemergence herbicide evaluation, growth of Amaranthus rudis (AMATA); type: in vivo; details: for pest or weed control at 280 g/ha / pest or weed control at 560 g/ha: Amaranthus tuberculatus, post-emergence, read-out: Ave. AMATA, percent reduction in plant size relative to the untreated control
[2] = system: Ambrosia artemisiifolia (AMBEL), common ragweed; assay: Postemergence herbicide evaluation, growth of Ambrosia artemisiifolia (AMBEL); type: in vivo; details: for pest or weed control at 280 g/ha / pest or weed control at 560 g/ha: Ambrosia artemisiifolia, post-emergence, read-out: AVE. AMBEL, percent reduction in plant size relative to the untreated control
[3] = system: Abutilon theophrasti (ABUTH), velvetleaf; assay: Postemergence herbicide evaluation, growth of Abutilon theophrasti (ABUTH); type: in vivo; details: for pest or weed control at 280 g/ha / pest or weed control at 560 g/ha: Abutilon theophrasti, post-emergence, read-out: AVE. ABUTH, percent reduction in plant size relative to the untreated control
[4] = system: Chenopodium album (CHEAL), common lambsquarters; assay: Postemergence herbicide evaluation, growth of Chenopodium album (CHEAL); type: in vivo; details: for pest or weed control at 280 g/ha / pest or weed control at 560 g/ha: Chenopodium album, post-emergence, read-out: Ave. CHEAL, percent reduction in plant size relative to the untreated control
[5] = system: glyphosate resistant Conyza canadensis (L.) (ERICA), horseweed; assay: Postemergence herbicide evaluation, growth of Conyza canadensis (ERICA); type: in vivo; details: for pest or weed control at 280 g/ha / pest or weed control at 560 g/ha: Erigeron canadensis, post-emergence, read-out: Ave. ERICA, percent reduction in plant size relative to the untreated control
[6] = Volatility of compounds measured by thermogravimetric analysis (TGA); type: physicochemical
[7] = system: weeds ABUTH, AMATA, AMBEL, CHEAL, ERICA; assay: Postemergence herbicide evaluation, overall average % weed control (ABUTH, AMATA, AMBEL, CHEAL, ERICA); type: in vivo; details: for pest or weed control at 280 g/ha / pest or weed control at 560 g/ha: post-emergence, read-out: Overall Ave % Weed Control

In the case of `O=C(COc1ccc(Cl)cc1Cl)Oc1cncnc1` [Compound E1], the “Ave. AMATA, percent reduction in plant size relative to the untreated control” value ([1]; 280 g ae/ha, 7 DAA) is reported as 78%, the “Ave. AMATA, percent reduction in plant size relative to the untreated control” value ([1]; 280 g ae/ha, 14 DAA) is reported as 75% and the “Ave. AMATA, percent reduction in plant size relative to the untreated control” value ([1]; 280 g ae/ha, 21 DAA) is reported as 70%. The “Ave. AMATA, percent reduction in plant size relative to the untreated control” value ([1]; 560 g ae/ha, 7 DAA) was 73%, the “Ave. AMATA, percent reduction in plant size relative to the untreated control” value ([1]; 560 g ae/ha, 14 DAA) was 85% and the “Ave. AMATA, percent reduction in plant size relative to the untreated control” value ([1]; 560 g ae/ha, 21 DAA) was 85%. The “AVE. AMBEL, percent reduction in plant size relative to the untreated control” value ([2]; 280 g ae/ha, 7 DAA) was 65%, the “AVE. AMBEL, percent reduction in plant size relative to the untreated control” value ([2]; 280 g ae/ha, 14 DAA) was 96% and the “AVE. AMBEL, percent reduction in plant size relative to the untreated control” value ([2]; 280 g ae/ha, 21 DAA) was 99%. For the same compound, the “AVE. AMBEL, percent reduction in plant size relative to the untreated control” value ([2]; 560 g ae/ha, 7 DAA) was 73%, the “AVE. AMBEL, percent reduction in plant size relative to the untreated control” value ([2]; 560 g ae/ha, 14 DAA) was 90% and the “AVE. AMBEL, percent reduction in plant size relative to the untreated control” value ([2]; 560 g ae/ha, 21 DAA) was 97%. For the same compound, the “AVE. ABUTH, percent reduction in plant size relative to the untreated control” value ([3]; 280 g ae/ha, 7 DAA) was 93%, the “AVE. ABUTH, percent reduction in plant size relative to the untreated control” value ([3]; 280 g ae/ha, 14 DAA) was 96% and the “AVE. ABUTH, percent reduction in plant size relative to the untreated control” value ([3]; 280 g ae/ha, 21 DAA) was 100%. The “AVE. ABUTH, percent reduction in plant size relative to the untreated control” value ([3]; 560 g ae/ha, 7 DAA) was 85%, the “AVE. ABUTH, percent reduction in plant size relative to the untreated control” value ([3]; 560 g ae/ha, 14 DAA) was 97% and the “AVE. ABUTH, percent reduction in plant size relative to the untreated control” value ([3]; 560 g ae/ha, 21 DAA) was 100%. For the same compound, the “Ave. CHEAL, percent reduction in plant size relative to the untreated control” value ([4]; 280 g ae/ha, 7 DAA) was 70%, the “Ave. CHEAL, percent reduction in plant size relative to the untreated control” value ([4]; 280 g ae/ha, 14 DAA) was 73% and the “Ave. CHEAL, percent reduction in plant size relative to the untreated control” value ([4]; 280 g ae/ha, 21 DAA) was 78%. For the same compound, the “Ave. CHEAL, percent reduction in plant size relative to the untreated control” value ([4]; 560 g ae/ha, 7 DAA) was 75%, the “Ave. CHEAL, percent reduction in plant size relative to the untreated control” value ([4]; 560 g ae/ha, 14 DAA) was 90% and the “Ave. CHEAL, percent reduction in plant size relative to the untreated control” value ([4]; 560 g ae/ha, 21 DAA) was 87%. The “Ave. ERICA, percent reduction in plant size relative to the untreated control” value ([5]; 280 g ae/ha, 7 DAA) was 68%, the “Ave. ERICA, percent reduction in plant size relative to the untreated control” value ([5]; 280 g ae/ha, 14 DAA) was 85% and the “Ave. ERICA, percent reduction in plant size relative to the untreated control” value ([5]; 280 g ae/ha, 21 DAA) was 95%. For the same compound, the “Ave. ERICA, percent reduction in plant size relative to the untreated control” value ([5]; 560 g ae/ha, 7 DAA) was 75%, the “Ave. ERICA, percent reduction in plant size relative to the untreated control” value ([5]; 560 g ae/ha, 14 DAA) was 85% and the “Ave. ERICA, percent reduction in plant size relative to the untreated control” value ([5]; 560 g ae/ha, 21 DAA) was 98%. The “TGA Data (rate of weight loss, volatility)” value [6] was 0.8 µg/min, the “Overall Ave % Weed Control” value ([7]; 280 g ae/ha, 7 DAA) was 75% and the “Overall Ave % Weed Control” value ([7]; 280 g ae/ha, 14 DAA) was 85%. For the same compound, the “Overall Ave % Weed Control” value ([7]; 280 g ae/ha, 21 DAA) was 88%, the “Overall Ave % Weed Control” value ([7]; 560 g ae/ha, 7 DAA) was 76% and the “Overall Ave % Weed Control” value ([7]; 560 g ae/ha, 14 DAA) was 89%. For the same compound, the “Overall Ave % Weed Control” value ([7]; 560 g ae/ha, 21 DAA) was 93%.
With `O=C(COc1ccc(Cl)cc1Cl)Oc1ncc(Cl)cn1` [Compound E13] the pest or weed control at 280 g/ha ([1]; 168 h, 280 g ae/ha, 7 DAA) was 85%, the pest or weed control at 560 g/ha ([1]; 168 h, 560 g ae/ha, 7 DAA) was 87.5% and the pest or weed control at 280 g/ha ([1]; 336 h, 280 g ae/ha, 14 DAA) was 82.5%. The pest or weed control at 560 g/ha ([1]; 336 h, 560 g ae/ha, 14 DAA) was 96%, the pest or weed control at 280 g/ha ([1]; 504 h, 280 g ae/ha, 21 DAA) was 86.5% and the pest or weed control at 560 g/ha ([1]; 504 h, 560 g ae/ha, 21 DAA) was 99%. For the same compound, the pest or weed control at 280 g/ha ([2]; 168 h, 280 g ae/ha, 7 DAA) was 70%, the pest or weed control at 560 g/ha ([2]; 168 h, 560 g ae/ha, 7 DAA) was 82.5% and the pest or weed control at 280 g/ha ([2]; 336 h, 280 g ae/ha, 14 DAA) was 89.5%. For the same compound, the pest or weed control at 560 g/ha ([2]; 336 h, 560 g ae/ha, 14 DAA) was 97.5%, the pest or weed control at 280 g/ha ([2]; 504 h, 280 g ae/ha, 21 DAA) was 100% and the pest or weed control at 560 g/ha ([2]; 504 h, 560 g ae/ha, 21 DAA) was 100%. The pest or weed control at 280 g/ha ([3]; 168 h, 280 g ae/ha, 7 DAA) was 76.5%, the pest or weed control at 560 g/ha ([3]; 168 h, 560 g ae/ha, 7 DAA) was 72.5% and the pest or weed control at 280 g/ha ([3]; 336 h, 280 g ae/ha, 14 DAA) was 90%. The pest or weed control at 560 g/ha ([3]; 336 h, 560 g ae/ha, 14 DAA) was 93.5%, the pest or weed control at 280 g/ha ([3]; 504 h, 280 g ae/ha, 21 DAA) was 100% and the pest or weed control at 560 g/ha ([3]; 504 h, 560 g ae/ha, 21 DAA) was 100%. For the same compound, the pest or weed control at 280 g/ha ([4]; 168 h, 280 g ae/ha, 7 DAA) was 77.5%, the pest or weed control at 560 g/ha ([4]; 168 h, 560 g ae/ha, 7 DAA) was 85% and the pest or weed control at 280 g/ha ([4]; 336 h, 280 g ae/ha, 14 DAA) was 95%. The pest or weed control at 560 g/ha ([4]; 336 h, 560 g ae/ha, 14 DAA) was 90%, the pest or weed control at 280 g/ha ([4]; 504 h, 280 g ae/ha, 21 DAA) was 96.5% and the pest or weed control at 560 g/ha ([4]; 504 h, 560 g ae/ha, 21 DAA) was 100%. The pest or weed control at 280 g/ha ([5]; 168 h, 280 g ae/ha, 7 DAA) was 82.5%, the pest or weed control at 560 g/ha ([5]; 168 h, 560 g ae/ha, 7 DAA) was 80% and the pest or weed control at 280 g/ha ([5]; 336 h, 280 g ae/ha, 14 DAA) was 100%. The pest or weed control at 560 g/ha ([5]; 336 h, 560 g ae/ha, 14 DAA) was 99%, the pest or weed control at 280 g/ha ([5]; 504 h, 280 g ae/ha, 21 DAA) was 99.5% and the pest or weed control at 560 g/ha ([5]; 504 h, 560 g ae/ha, 21 DAA) was 97.5%. For the same compound, the “TGA Data (rate of weight loss, volatility)” value [6] was 0.16 µg/min, the pest or weed control at 280 g/ha ([7]; 168 h, 280 g ae/ha, 7 DAA) was 78.3% and the pest or weed control at 560 g/ha ([7]; 168 h, 560 g ae/ha, 7 DAA) was 81.5%. It also gave a pest or weed control at 280 g/ha ([7]; 336 h, 280 g ae/ha, 14 DAA) of 91.4%, a pest or weed control at 560 g/ha ([7]; 336 h, 560 g ae/ha, 14 DAA) of 95.2% and a pest or weed control at 280 g/ha ([7]; 504 h, 280 g ae/ha, 21 DAA) of 96.5%. For the same compound, the pest or weed control at 560 g/ha ([7]; 504 h, 560 g ae/ha, 21 DAA) was 99.3%.
